Assay results reported in paper doi:10.1101/2025.04.10.648262, “Time-resolved phenotyping at subcellular resolution reveals shared principles and key trade-offs across antimicrobial peptide activities” (bioRxiv, 2026).
Bridge positions count the residues as written; N and C are the ends. Square brackets hold non-standard residues; d marks the D form. Peptide text beside a SMILES is read from it. Nspe = C[C@H](NCC(=O)O)c1ccccc1; Nlys = NCCCCNCC(=O)O

Tested on: E. coli strain (CJW7845)
Assay: Time-lapse single-cell phenotyping of inner/outer membrane permeabilization to proteins and growth arrest in microwells
Type: cell-based, Escherichia coli
Set-up: key to Class (timing of growth arrest relative to IM permeabilization to proteins): Class I AMPs and PMs cause growth arrest predominantly associated with inner membrane (IM) permeabilization; class II compounds inhibit growth without substantial IM permeabilization
Conditions: for Class (timing of growth arrest relative to IM permeabilization to proteins) / Type (relative timing of OM and IM permeabilization) / OM-permeabilized cells among IM-permeabilized cells: 2X MIC; for Class (timing of growth arrest relative to IM permeabilization to proteins) / Type (relative timing of OM and IM permeabilization): CJW7845, M9gluCAAT, 37°C, time-lapse microscopy; for OM-permeabilized cells among IM-permeabilized cells: CJW7845, during the experiment; for OM-permeabilized cells (out of all IM-permeabilized cells): 10X MIC, CJW7845
Protocol: For experiments with PDMS microwells, cells were allowed to grow for ~30 min in the temperature-controlled enclosure prior to imaging. A 10X concentrated AMP solution was spiked in (at 1/10 the volume of the well) and mixed well by pipetting after ~20 min from the start of the image acquisition, without interrupting the timelapse sequence. When the uptake of SYTOX Green was monitored, SYTOX Green was included in the AMP solution and spiked in during the experiment to obtain a final concentration of SYTOX Green of 50 nM in the well. This allowed us to monitor healthy cell growth prior to AMP treatment, to rapidly set the desired AMP (or SYTOX Green) concentration from one frame to the next (unlike for flow-controlled injection systems), and to resolve the AMP-induced phenotype in real time. The current design allows for testing up to four independent conditions in parallel.
To analyse the single-cell experiments in microwells, OmniSegger software (https://github.com/tlo-bot/omnisegger), which combines SuperSegger MATLAB-based suite ([Stylianidou et al., 2016]) for cell analysis with Omnipose segmentation ([Cutler et al., 2022]), was used to first process the microscopy images by performing drift correction, cell segmentation, and cell linking. Given that AMP-treated cells can display extreme phenotypes, such as exceedingly bright and/or heterogeneous phase contrast signal (likely a result of the widely changing intracellular density upon AMP treatment) and that the software’s pre-trained model bact_phase_omni ([Cutler et al, 2022]) tended to split cells before cell division was completed, a new Omnipose model was trained from scratch starting from bact_phase_omni-generated masks that were further corrected and curated using custom-made Python scripts (screening_good_bad.py and generate_training_dataset.py). Details on the Omnipose model retraining can be found in a previous publication ([Thappeta et al., 2025]). The final model (omnipose_phase_microwells_model) and corresponding training datasets are available at https://github.com/JacobsWagnerLab/published/tree/master/Fragasso_et_al_2025 and BioImage Archive (accession number: S-BIAD1823), respectively.
MATLAB files of the linked cell trajectories output from OmniSegger were then imported, background subtracted using background_subtraction.py, which was adapted from a previous study ([Papagiannakis et al., 2025]), and converted to Python data structures (import_processing_code.py), from which cell features such as cell area, nucleoid area, mean fluorescence intensity, etc., were extracted for each cell at each frame. The exported dataframes were further processed to estimate instantaneous growth rates and were run through a series of functions to perform curation based on cell areas and instantaneous growth rates over time (post_processing_curation_functions.py). […] Represented data points were pooled from multiple replicates.
Analysis of strain CJW7845 proceeded by extracting the timings of permeabilization of the outer and inner membranes based on the mean fluorescence intensities of mScarlet-I and/or mTagBFP2 fluorescent proteins (using function get_permeabilization_time.py), cell growth arrest, and the initiation time of growth inhibition. To obtain accurate timings underlying membrane permeabilization events, information from both the signal intensity itself as well as its derivative were combined, which enabled us to accurately resolve the relevant changes in fluorescent protein signal beyond the intrinsic high-frequency noise and low-frequency photobleaching. Inner membrane permeabilization to proteins can result in two possible phenotypes when simultaneously monitoring freely diffusing periplasmic and cytoplasmic probes, depending on which membrane (outer or inner) becomes permeabilized first. When the outer membrane is first permeabilized, mScarlet-I signal is lost first, followed by mTagBFP2 when the inner membrane becomes also permeabilized. […]

| Compound | Class (timing of growth arrest relative to IM permeabilization to proteins) | Type (relative timing of OM and IM permeabilization) | OM-permeabilized cells among IM-permeabilized cells | Cells in which the IM became permeabilized (concentrations close to the MIC (2X MIC)) [%] | OM-permeabilized cells (out of all IM-permeabilized cells) |
| --- | --- | --- | --- | --- | --- |
| CC[C@@H](C)[C@@H](NC(=O)[C@@H](C)NC(=O)[C@@H](CCCNC(=N)N)NC(=O)[C@@H](Cc1c[nH]c2ccccc12)NC(=O)[C@@H](CCC(N)=O)NC(=O)[C@H](N)C(C)C)C(=O)N[C@H](CCCNC(=N)N)C(=O)N[C@@H](C(=O)N[C@H](CCCNC(=N)N)C(=O)N[C@@H](C(=O)N[C@@H](C(=O)N[C@H](CCCNC(=N)N)C(N)=O)[C@H](C)CC)C(C)C)C(C)C [DJK-5] (H-[dV][dQ][dW][dR][dA][dI][dR][dV][dR][dV][dI][dR]-NH2; N-terminus and C-terminus assumed) | II | B (type B AMPs and PMs permeabilize the IM well before (>10 min) the OM) | 81/151 | > 60 | – |
| C[C@@H](c1ccccc1)N(CC(N)=O)C(=O)CN(C(=O)CN(CCCCN)C(=O)CN(C(=O)CN(C(=O)CN(CCCCN)C(=O)CN(C(=O)CN(C(=O)CN(CCCCN)C(=O)CN(C(=O)CN(C(=O)CNCCCCN)[C@@H](C)c1ccccc1)[C@@H](C)c1ccccc1)[C@@H](C)c1ccccc1)[C@@H](C)c1ccccc1)[C@@H](C)c1ccccc1)[C@@H](C)c1ccccc1)[C@@H](C)c1ccccc1 [TM1] (H-[Nlys][Nspe][Nspe][Nlys][Nspe][Nspe][Nlys][Nspe][Nspe][Nlys][Nspe][Nspe]-NH2) | I | B (type B AMPs and PMs permeabilize the IM well before (>10 min) the OM) | 24/97 | – | 77/171 |
| CC[C@H](C)[C@@H]1NC(=O)CNC(=O)[C@H](CCCNC(=N)N)NC(=O)[C@H](Cc2ccc(O)cc2)NC(=O)[C@@H]2CSSC[C@H](NC1=O)C(=O)N[C@@H](Cc1ccc(O)cc1)C(=O)N[C@@H](CCCNC(=N)N)C(=O)N[C@@H](CCCNC(=N)N)C(=O)N[C@H](C(=O)N[C@@H](CCCNC(=N)N)C(N)=O)CSSC[C@H](NC(=O)[C@H](Cc1c[nH]c3ccccc13)NC(=O)[C@@H](N)CCCCN)C(=O)N[C@@H](Cc1ccccc1)C(=O)N[C@@H](CCCNC(=N)N)C(=O)N[C@@H](C(C)C)C(=O)N2 [Tac1, tachyplesin-1] (H-KWCFRVCYRGICYRRCR-NH2; disulfide 3-16, 7-12 (inferred); N-terminus assumed) | I | A (type A AMPs predominantly permeabilize the outer membrane (OM) within 10 min of the IM) | 273/273 | – | 82/128 |
